Test results as given in PubChem BioAssay AID330 (DTP/NCI, 2004).
Where “and” joins values, the source holds several entries; their conditions need not be identical. Equal entries are not always repeated. Toxic doses and inconclusive results are not listed.

Test system: P388 leukemia ip, CD2F1 mice, survival T/C
Test: NCI In Vivo Anticancer Drug Screen. Data for tumor model P388 Leukemia (intraperitoneal) in CD2F1 (CDF1) mice
Settings: endpoint: median survival time, higher = longer survival
Procedure, shortened: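 Mice carrying the transplanted tumor received test compound or vehicle. Survival was recorded in each group, and the value is the treated-group measurement divided by that of the vehicle-treated control group.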

[1] = dose: 12.5 mg/kg/injection, schedule: Q01DX009 (ip), vehicle: Klucel (hydroxypropylcellulose) (HPC)
[2] = dose: 25.0 mg/kg/injection, schedule: Q01DX009 (ip), vehicle: Klucel (hydroxypropylcellulose) (HPC)
[3] = dose: 100.0 mg/kg/injection, schedule: Q01DX009 (ip), vehicle: Klucel (hydroxypropylcellulose) (HPC)
[4] = dose: 50.0 mg/kg/injection, schedule: Q01DX009 (ip), vehicle: saline
[5] = dose: 6.25 mg/kg/injection, schedule: Q01DX009 (ip), vehicle: Klucel (hydroxypropylcellulose) (HPC)
[6] = dose: 50.0 mg/kg/injection, schedule: Q01DX009 (ip), vehicle: Klucel (hydroxypropylcellulose) (HPC)

`CN1C(Cc2ccccc2)N(S(=O)(=O)C2C=CC=CC=C2)CC1(C)C` (configuration not stated) was tested, and the T/C (dose: 100.0 mg/kg/injection, schedule: Q04DX003 (ip), vehicle: saline) was 101 % of control, the T/C (dose: 200.0 mg/kg/injection, schedule: Q04DX003 (ip), vehicle: saline) was 99 % of control and the T/C (dose: 400.0 mg/kg/injection, schedule: Q04DX003 (ip), vehicle: saline) was 93 % of control.

With `COc1cc2c[n+]3ccc4ccccc4c3c(N)c2cc1OC` the T/C (dose: 50.0 mg/kg/injection, schedule: Q04DX003 (ip), vehicle: distilled water + Tween-80) was 97 % of control and the T/C (dose: 100.0 mg/kg/injection, schedule: Q04DX003 (ip), vehicle: distilled water + Tween-80) was 106 % of control.

With `O=C1CC(c2ccccc2)Oc2cc(O)cc(O)c21` (configuration not stated) the T/C [1] was 98 % of control, the T/C [2] was 98 % of control and the T/C (dose: 50.0 mg/kg/injection, schedule: Q01DX009 (ip), vehicle: other) was 110 % of control. The T/C [3] was 98 % of control, the T/C (dose: 200.0 mg/kg/injection, schedule: Q01DX009 (ip), vehicle: other) was 102 % of control and the T/C (dose: 400.0 mg/kg/injection, schedule: Q01DX009 (ip), vehicle: other) was 102 % of control.

`CCN(CC)CCNc1ccc([N+](=O)[O-])c2sc3ccccc3c(=O)c12` was tested, and the T/C (dose: 6.25 mg/kg/injection, schedule: Q01DX009 (ip), vehicle: saline) was 104 % of control, the T/C (dose: 12.5 mg/kg/injection, schedule: Q01DX009 (ip), vehicle: saline) was 112 % of control and the T/C (dose: 33.0 mg/kg/injection, schedule: Q01DX009 (ip), vehicle: saline) was 180 % of control. The T/C [4] was 220 % of control, the T/C (dose: 75.0 mg/kg/injection, schedule: Q01DX009 (ip), vehicle: saline) was 115 % of control and the T/C (dose: 100.0 mg/kg/injection, schedule: Q01DX009 (ip), vehicle: saline with Tween-80) was 158 % of control.

With `COc1cc(/C=N\NC(=O)c2cccc(Cl)c2)ccc1N(CCCl)CCCl` the T/C (dose: 200.0 mg/kg/injection, schedule: Q04DX003 (ip), vehicle: saline with Tween-80) was 163 % of control, the T/C (dose: 264.0 mg/kg/injection, schedule: Q04DX003 (ip), vehicle: saline with Tween-80) was 154 % of control and the T/C (dose: 400.0 mg/kg/injection, schedule: Q04DX003 (ip), vehicle: saline with Tween-80) was 172 % of control and 195 % of control. The T/C (dose: 600.0 mg/kg/injection, schedule: Q04DX003 (ip), vehicle: saline with Tween-80) was 154 % of control.

`COCC(O)COC` was tested, and the T/C [4] was 94 % of control, the T/C (dose: 100.0 mg/kg/injection, schedule: Q01DX009 (ip), vehicle: saline) was 96 % of control and the T/C (dose: 200.0 mg/kg/injection, schedule: Q01DX009 (ip), vehicle: saline) was 87 % of control.

For `O=c1cc(-c2ccccc2)[nH]c(=S)[nH]1`, the T/C (dose: 50.0 mg/kg/injection, schedule: Q01DX001 (ip), vehicle: Klucel (hydroxypropylcellulose) (HPC)) was 103 % of control, the T/C (dose: 100.0 mg/kg/injection, schedule: Q01DX001 (ip), vehicle: Klucel (hydroxypropylcellulose) (HPC)) was 100 % of control and the T/C (dose: 200.0 mg/kg/injection, schedule: Q01DX001 (ip), vehicle: Klucel (hydroxypropylcellulose) (HPC)) was 99 % of control. For the same molecule, the T/C (dose: 400.0 mg/kg/injection, schedule: Q01DX001 (ip), vehicle: Klucel (hydroxypropylcellulose) (HPC)) was 106 % of control.

In the case of `NNC(=O)CN1c2ccccc2Sc2ccc(Cl)cc21`, the T/C [5] is reported as 104 % of control, the T/C [1] is reported as 95 % of control and the T/C [2] is reported as 97 % of control. The T/C [6] was 99 % of control.

In the case of `CCNC(=O)NS(=O)(=O)c1ccc(Sc2ccc(Cl)cc2)nc1`, the T/C (dose: 60.0 mg/kg/injection, schedule: Q01DX005 (ip), vehicle: saline with Tween-80) is reported as 102 % of control, the T/C (dose: 120.0 mg/kg/injection, schedule: Q01DX005 (ip), vehicle: saline with Tween-80) is reported as 105 % of control and the T/C (dose: 240.0 mg/kg/injection, schedule: Q01DX005 (ip), vehicle: saline with Tween-80) is reported as 95 % of control.

`CC1(C)N=C(N)N=C(N)N1c1ccc(CCCCc2ccc(Cl)c(S(=O)(=O)F)c2)c(Cl)c1` was tested, and the T/C (dose: 2.0 mg/kg/injection, schedule: Q01DX009 (ip), vehicle: saline with Tween-80) was 154 % of control, the T/C (dose: 8.0 mg/kg/injection, schedule: Q01DX009 (ip), vehicle: saline with Tween-80) was 154 % of control and the T/C (dose: 8.0 mg/kg/injection, schedule: Q01DX009 (ip), vehicle: saline) was 172 % of control and 175 % of control. For the same molecule, the T/C (dose: 12.0 mg/kg/injection, schedule: Q01DX009 (ip), vehicle: saline) was 180 % of control and 181 % of control, the T/C (dose: 18.0 mg/kg/injection, schedule: Q01DX009 (ip), vehicle: saline) was 163 % of control and 172 % of control and 180 % of control and the T/C (dose: 27.0 mg/kg/injection, schedule: Q01DX009 (ip), vehicle: saline) was 154 % of control and 172 % of control.

With `CCCCCCCC/C=C\CCCCCCCC(=O)OC` the T/C (dose: 177.0 mg/kg/injection, schedule: Q01DX009 (ip), vehicle: saline with Tween-80) was 109 % of control, the T/C (dose: 266.0 mg/kg/injection, schedule: Q01DX009 (ip), vehicle: saline with Tween-80) was 116 % of control and the T/C (dose: 400.0 mg/kg/injection, schedule: Q01DX009 (ip), vehicle: saline with Tween-80) was 106 % of control. The T/C (dose: 600.0 mg/kg/injection, schedule: Q01DX009 (ip), vehicle: saline with Tween-80) was 107 % of control.

With `C(=C\c1cc2ccc(C3=NCCN3)cc2[nH]1)/c1ccc(Oc2ccc(C3=NCCN3)cc2)cc1` the T/C (dose: 3.12 mg/kg/injection, schedule: Q04DX003 (ip), vehicle: saline) was 108 % of control, the T/C (dose: 6.25 mg/kg/injection, schedule: Q04DX003 (ip), vehicle: saline) was 103 % of control and the T/C (dose: 12.5 mg/kg/injection, schedule: Q04DX003 (ip), vehicle: saline) was 111 % of control. For the same molecule, the T/C (dose: 25.0 mg/kg/injection, schedule: Q04DX003 (ip), vehicle: saline) was 120 % of control.

In the case of `N#CCNCC#N`, the T/C (dose: 100.0 mg/kg/injection, schedule: Q04DX002 (ip), vehicle: saline) is reported as 102 % of control, the T/C (dose: 200.0 mg/kg/injection, schedule: Q04DX002 (ip), vehicle: saline) is reported as 103 % of control and the T/C (dose: 400.0 mg/kg/injection, schedule: Q04DX002 (ip), vehicle: saline) is reported as 102 % of control.

`CC(=O)/C(=C\c1ccccc1)C(=O)CCN(C)C` was tested, and the T/C (dose: 25.0 mg/kg/injection, schedule: Q01DX005 (ip), vehicle: saline with Tween-80) was 100 % of control and the T/C (dose: 50.0 mg/kg/injection, schedule: Q01DX005 (ip), vehicle: saline with Tween-80) was 103 % of control.

`CCCCCC[C@H]([C@H](C)O)n1cnc2c(N)ncnc21` was tested, and the T/C (dose: 1.56 mg/kg/injection, schedule: Q01DX009 (ip), vehicle: Klucel (hydroxypropylcellulose) (HPC)) was 100 % of control, the T/C (dose: 3.12 mg/kg/injection, schedule: Q01DX009 (ip), vehicle: Klucel (hydroxypropylcellulose) (HPC)) was 100 % of control and the T/C (dose: 4.0 mg/kg/injection, schedule: Q01DX005 (ip), vehicle: Klucel (hydroxypropylcellulose) (HPC)) was 100 % of control. For the same molecule, the T/C [5] was 98 % of control, the T/C (dose: 8.0 mg/kg/injection, schedule: Q01DX005 (ip), vehicle: Klucel (hydroxypropylcellulose) (HPC)) was 102 % of control and the T/C [1] was 105 % of control. The T/C (dose: 16.0 mg/kg/injection, schedule: Q01DX005 (ip), vehicle: Klucel (hydroxypropylcellulose) (HPC)) was 100 % of control, the T/C [2] was 105 % of control and 96 % of control and the T/C (dose: 32.0 mg/kg/injection, schedule: Q01DX005 (ip), vehicle: Klucel (hydroxypropylcellulose) (HPC)) was 104 % of control. For the same molecule, the T/C [6] was 104 % of control and 96 % of control, the T/C (dose: 64.0 mg/kg/injection, schedule: Q01DX005 (ip), vehicle: Klucel (hydroxypropylcellulose) (HPC)) was 100 % of control and the T/C [3] was 98 % of control. For the same molecule, the T/C (dose: 200.0 mg/kg/injection, schedule: Q01DX009 (ip), vehicle: Klucel (hydroxypropylcellulose) (HPC)) was 98 % of control.

With `O=S1C2CCC(Br)C1CCC2Br` (configuration not stated) the T/C (dose: 0.39 mg/kg/injection, schedule: Q04DX002 (ip), vehicle: saline + alcohol) was 105 % of control, the T/C (dose: 0.78 mg/kg/injection, schedule: Q04DX002 (ip), vehicle: saline + alcohol) was 100 % of control and the T/C (dose: 1.56 mg/kg/injection, schedule: Q04DX002 (ip), vehicle: saline + alcohol) was 101 % of control.

For `CC(C)(C)P(O)(=S)c1ccccc1` (configuration not stated) (tested in a mixture with another compound), the T/C (dose: 100.0 mg/kg/injection, schedule: Q04DX003 (ip), vehicle: Klucel (hydroxypropylcellulose) (HPC)) was 102 % of control, the T/C (dose: 200.0 mg/kg/injection, schedule: Q04DX003 (ip), vehicle: Klucel (hydroxypropylcellulose) (HPC)) was 102 % of control and the T/C (dose: 400.0 mg/kg/injection, schedule: Q04DX003 (ip), vehicle: Klucel (hydroxypropylcellulose) (HPC)) was 100 % of control.

For `Cc1ccc(N=Nc2c(-c3ccccc3)nn(C(=S)S)c2-c2ccccc2)cc1`, the T/C (dose: 25.0 mg/kg/injection, schedule: Q04DX002 (ip), vehicle: Klucel (hydroxypropylcellulose) (HPC)) was 101 % of control, the T/C (dose: 50.0 mg/kg/injection, schedule: Q04DX002 (ip), vehicle: Klucel (hydroxypropylcellulose) (HPC)) was 105 % of control and the T/C (dose: 100.0 mg/kg/injection, schedule: Q04DX002 (ip), vehicle: Klucel (hydroxypropylcellulose) (HPC)) was 99 % of control. For the same molecule, the T/C (dose: 200.0 mg/kg/injection, schedule: Q04DX002 (ip), vehicle: Klucel (hydroxypropylcellulose) (HPC)) was 103 % of control.
